Data reported in publication PMC9684503 (Communications Biology, 2022).
Counter-ions that a name gives are not always drawn. Like-named read-outs stand apart in the source and are kept apart here.

What was measured:
rat VMAT2 = rat VMAT2 (Rattus norvegicus, UniProt Q01827); assay: FFN206 uptake assay in transfected Hek293 cells
VMAT2 [1] = target: T1, VMAT2 (Rattus norvegicus, UniProt Q01827); details: hek293 cells, 50 µM
Description: (§1) We preincubated cells expressing VMAT2 with 50 μM compounds and measured [^3H]-DTBZ binding (5 nM) to the sample (Fig. 3a). […] Hek293 cells were grown and transfected with pcDNA3.1 VMAT2-His as described above. Two days after transfection, cells were harvested, washed and transferred to 96 well MultiScreen FB filter plates (Millipore). […] Cells were washed 3 times with ice cold PBS and 50 µl Ultima Gold LLL (PerkinElmer) was added to each well. […] After a 20 min incubation at 37 °C, cells were washed and [^3H] scintillation counting was performed as described above.

VMAT2 [2] = target: T1, VMAT2; assay: [3H]-DTBZ competition assay in Hek293 cells expressing VMAT2; details: 50 μM compound;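 note: HEK293 cells transfected with VMAT2, pretreated 30 min with compound, then given 5 nM [3H]-DTBZ for 20 min at 37 °C, bound label read by scintillation counting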
Description: as §1

rat VMAT2-His = target: T2, rat VMAT2-His (Rattus norvegicus, UniProt Q01827); assay: Differential scanning fluorimetry (DSF) with CPM dye: change of melting temperature of purified VMAT2; format: binding; details: for ΔTm at 10 µM / ΔTm at 30 µM / ΔTm at 90 µM / ΔTm at 270 µM / ΔTm at 12 µM / ΔTm at 37 µM / ΔTm at 11 µM / ΔTm at 33 µM: Table S2 dose response, read-out: ΔTm; for ΔTm at 10 µM: compound 10 µM; for ΔTm at 30 µM: compound 30 µM; for ΔTm at 90 µM: compound 90 µM; for ΔTm at 270 µM: compound 270 µM; for ΔTm at 12 µM: compound 0,12 µM; for ΔTm at 37 µM: compound 0,37 µM; for ΔTm at 11 µM: compound 1,11 µM; for ΔTm at 33 µM: compound 3,33 µM
T2 construct: The ORF of rat VMAT2 was subcloned into a pFastBac vector; His; made in house; host or cells: Sf9 insect cells (baculovirus)
Description: To screen purified VMAT2 by DSF we expressed the rat VMAT2 protein, as VMAT2-His, in SF9 insect cells using the baculovirus expression system. The transporter was solubilized and purified in n-Dodecyl-β-D-maltoside (DDM)/cholesterol hemisuccinate (CHS) micelles by immobilized metal affinity chromatography (IMAC) and size exclusion chromatography (SEC). […] Screening was performed using DSF and the thiol-reactive dye 7-diethylamino-3-(4-maleimidophenyl)-4-methylcoumarin (CPM), an approach that monitors changes to the protein melting temperature (Tm) upon compound binding. Using CPM or other dyes, DSF-based assays have successfully been used in molecular-based screenings[34],[35]. […] DSF screening was performed in 384 well plates using the thiol-sensing dye 7-diethylamino-3-(4-maleimidophenyl)-4-methylcoumarin (CPM) (Merck). […] Protein melting curves were determined using a LightCycler 480 ii RT-PCR system (Roche), with a temperature ramp increasing from 25 to 95 °C at a rate of 2 °C/min. Data analysis was performed using an in-house software that automatically determines the protein midpoint melting temperature (Tm) based on the second derivative of the melting curves or using the HTSDSF explorer as described in ref. [58]. […] 6 μl of this mix was dispensed to each well of 384 well plates using a Multidrop™ Combi Reagent Dispenser (Thermo Scientific). […] All initial hits were then subjected to an initial validation in triplicates with a compound concentration of 200 μM and a ΔTm > 5× the standard deviation (SD) cut off. […] Processing of the data from the primary screening and the concentration-dependent validation was performed as reported.

[3] = Table 1, DSF screening, mean ± SD of triplicates
[4] = Table S1, primary hits, average change in melting temperature vs controls, triplicates

T2 sequence (Q01827 whole entry): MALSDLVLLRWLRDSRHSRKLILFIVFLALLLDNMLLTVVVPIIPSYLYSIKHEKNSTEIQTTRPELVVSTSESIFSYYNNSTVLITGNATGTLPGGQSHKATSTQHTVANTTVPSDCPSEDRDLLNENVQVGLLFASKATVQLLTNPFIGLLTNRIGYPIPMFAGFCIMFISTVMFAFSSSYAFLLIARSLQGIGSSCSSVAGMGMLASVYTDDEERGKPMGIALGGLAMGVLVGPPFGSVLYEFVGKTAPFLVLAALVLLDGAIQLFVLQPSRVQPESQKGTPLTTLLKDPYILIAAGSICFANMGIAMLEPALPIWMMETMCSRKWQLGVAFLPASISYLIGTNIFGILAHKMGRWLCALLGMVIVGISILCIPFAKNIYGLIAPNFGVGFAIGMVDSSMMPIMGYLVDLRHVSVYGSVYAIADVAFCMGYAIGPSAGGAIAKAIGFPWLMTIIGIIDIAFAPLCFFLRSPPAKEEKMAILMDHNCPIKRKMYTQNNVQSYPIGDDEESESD
Sequence of rat VMAT2 (Q01827 whole entry): as above
T1 sequence (Q01827 whole entry): as above

Compound | IC50 (rat VMAT2) [µM] | activity (VMAT2 [1]) [%] | effect on [3H]-DTBZ binding compared with DMSO control (one-way ANOVA, p < 0.001) (VMAT2 [2]) | ΔTm (rat VMAT2-His; [3]) [oC] | ΔTm at 10 µM (rat VMAT2-His) [°C] | ΔTm at 30 µM (rat VMAT2-His) [°C] | ΔTm at 90 µM (rat VMAT2-His) [°C] | ΔTm at 270 µM (rat VMAT2-His) [°C] | ΔTm at 12 µM (rat VMAT2-His) [°C] | ΔTm at 37 µM (rat VMAT2-His) [°C] | ΔTm at 11 µM (rat VMAT2-His) [°C] | ΔTm at 33 µM (rat VMAT2-His) [°C] | ΔTm (rat VMAT2-His; [4]) | IC50 (rat VMAT2; read-out: IC50, rat VMAT2, Table S1, substrate uptake assays in transfected Hek293 cells) [µM]
CCN(CC)CCCC(C)Nc1ccnc2cc(Cl)ccc12 (centres unmarked) [Chloroquine] | > 10 | 85.1 ± 11.3 | no statistically significant effect |  |  |  |  |  |  |  |  |  |  | 
CC(C)(C)NCC(O)c1cc(Cl)c(N)c(Cl)c1 (centres unmarked) [Clenbuterol] | > 10 |  |  | 2.19 ± 0.13 |  |  |  |  |  |  |  |  |  | 
C1CCC(C(CC2CCCCN2)C2CCCCC2)CC1 (centres unmarked) [Perhexiline maleate] |  |  |  |  | -0.18 | -0.27 | -1.17 | -3.23 |  |  |  |  |  | 
CC(C)NCC(O)COc1ccc(CCOCC2CC2)cc1 (centres unmarked) [Betaxolol, Betaxolol hydrochloride] | 6.85 ± 3.62 |  |  | 1.98 ± 0.15 | 0.12 | 0.01 | 0.2 | 1.16 | -0.32 | -0.34 | 0.01 | 0.01 |  | 
CCCCC(CC)CN1CN(CC(CC)CCCC)CC(C)(N)C1 (centres unmarked) [Hexetidine] |  |  |  |  | -0.28 | -0.3 | -0.46 | -1.54 | -0.09 | -0.06 | -0.02 | -0.07 |  | 
CC(CCc1ccccc1)NCC(O)c1ccc(O)c(C(N)=O)c1 (centres unmarked) [Labetalol hydrochloride] |  |  |  |  | 0.27 | 0.42 | 0.1 | 0.24 |  |  |  |  | 0,81 ± 0,07 oC | 
OC(c1cc(C(F)(F)F)nc2c(C(F)(F)F)cccc12)C1CCCCN1 (centres unmarked) [Mefloquine hydrochloride] |  |  |  |  | 0.1 | 0.21 | 0.09 | 0.08 | -0.02 | 0.04 | 0 | -0.11 | -11,15 ± 0,23 oC | 
CCCC(=O)Nc1ccc(OCC(O)CNC(C)C)c(C(C)=O)c1 (centres unmarked) [Acebutolol, Acebutolol hydrochloride] | > 10 |  |  | 2.14 ± 0.05 | 0.2 | 0.31 | 0.33 | 0.9 | 0.2 | 0.03 | 0.3 | 0.03 |  | < 10
C[C@@H]1C[C@H]2[C@@H]3C[C@H](F)C4=CC(=O)C=C[C@]4(C)[C@@]3(Cl)[C@@H](O)C[C@]2(C)[C@H]1C(=O)COC(=O)C(C)(C)C [Clocortolone pivalate] |  |  |  |  |  |  |  |  |  |  |  |  | 1,04 ± 0,11 oC | 
